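Cultured in 96-well plates, cells were exposed to test compound for 48 hours across five concentrations. TGI: concentration producing complete growth inhibition.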
Assays:
Assay in all cases: inhibition of tumour cell growth, NCI panel, 48 h
[1] = system: SNB-19 CNS
[2] = system: UACC-257 melanoma
[3] = system: K-562 leukemia
[4] = system: OVCAR-5 ovarian
[5] = system: EKVX NSCLC
[6] = system: LOX IMVI melanoma
[7] = system: SR leukemia
[8] = system: U251 CNS
[9] = system: RPMI-8226 leukemia
[10] = system: NCI-H226 lung
[11] = system: SK-OV-3 ovarian
[12] = system: MCF7 breast
[13] = system: SNB-75 CNS
[14] = system: UO-31 renal
[15] = system: M14 melanoma
[16] = system: HS 578T breast
[17] = system: NCI-H522 lung
[18] = system: A549 NSCLC
[19] = system: HOP-92 NSCLC

Structure (SMILES)	TGI [1] [µM]	TGI [2] [µM]	TGI [3] [µM]	TGI [4] [µM]	TGI [5] [µM]	TGI [6] [µM]	TGI [7] [µM]	TGI [8] [µM]	TGI [9] [µM]	TGI [10] [µM]	TGI [11] [µM]	TGI [12] [µM]	TGI [13] [µM]	TGI [14] [µM]	TGI [15] [µM]	TGI [16] [µM]	TGI [17] [µM]	TGI [18] [µM]	TGI [19] [µM]
S=C(c1c[nH]c2ccccc12)N1CCOCC1	> 100	> 100	> 100	> 100	> 100	> 100	> 100	> 100	> 100	> 100	> 100	> 100	74	> 100	> 100	> 100	–	–	–
CN(c1ccc(Cl)cc1)S(=O)(=O)c1cccc([N+](=O)[O-])c1	> 100	> 100	> 100	> 100	> 100	> 100	> 100	> 100	> 100	> 100	> 100	> 100	> 100	> 100	> 100	> 100	> 100	> 100	–
O=S1(=O)OCCOS(=O)(=O)C1F	> 100	> 100	> 100	> 100	> 100	> 100	> 100	> 100	> 100	> 100	> 100	> 100	> 100	> 100	> 100	> 100	> 100	> 100	–
COc1ccc2nc3ccc(OC)cc3c(S(=O)CCCl)c2c1 (centres undefined)	> 59.3	5.38	> 23.6	34.5	25.6	6.81	> 22.7	> 52.2	4.9	33.9	40.2	> 21.4	33.1	–	15.3	6.02	3.23	48	10.8
CCn1c(-c2cc(OC)cc(OC)c2)nc2c1C(=O)c1ccccc1C2=O	> 100	> 100	> 100	> 100	> 100	–	> 100	> 100	> 100	> 100	> 100	> 100	> 100	–	> 100	> 100	87.9	> 100	> 100
COc1cc(/C=C2\CCC(C)C3C2=NN(C(C)=O)C3c2cc(OC)c(OC)c(OC)c2)cc(OC)c1OC (centres undefined)	> 100	> 100	> 100	> 36.3	> 100	> 100	> 100	> 100	> 100	> 100	> 100	> 100	> 54.6	–	> 100	> 92.2	22.2	> 100	> 100
C=CCNC1=C2C[C@@H](C)C[C@@H](OC)[C@H](OC(=O)CCCCN)[C@H](C)/C=C(\C)[C@@H](OC(N)=O)[C@H](OC)/C=C\C=C(/C)C(=O)NC(=CC1=O)C2=O	23.8	18.9	> 100	34	26.9	27.5	> 100	22.8	35.1	–	19.9	12.4	15.2	34.2	27	58.4	28.8	25.2	35.7
C=C1C[C@@H]2O[C@H]3[C@H]4[C@@H](C[C@@H](C)[C@@H](OC(C)=O)[C@H]42)[C@@H](C)CO[C@@]3(C)[C@H](OC(C)=O)C[C@H]1O	> 100	> 100	63.7	> 100	> 100	38.7	> 100	> 100	–	> 100	> 100	> 100	> 100	> 100	> 100	> 100	> 100	> 100	> 100
NC(=O)C(N)Cc1ccc(O)cn1 (centres undefined)	> 100	> 100	> 100	> 100	> 100	> 100	> 100	> 100	> 100	> 100	–	> 100	> 100	> 100	–	> 100	> 100	> 100	> 100
COC(=O)Cc1cc(O)c(C/C=C(\C)CC/C=C(\C)C(O)C(=O)C=C(C)C)cc1O (centres undefined)	86	77.6	39.1	> 100	66.8	–	41.6	35.7	69.6	51.8	78.8	89.5	56.4	46	64.8	> 100	39.8	> 100	47.7
COc1ccc(N=C2SC(=N/N=c3\sc4ccccc4n3C)SC2=Nc2ccc(OC)cc2)cc1	> 100	> 100	> 100	> 100	> 100	–	> 100	> 100	> 100	> 100	> 100	> 100	94.5	> 100	> 100	> 100	> 100	> 100	> 100
O=[N+]([O-])c1ccccc1S(=O)(=O)c1cc(Cl)cc2c1NCCC2	> 100	96.7	> 100	> 100	> 100	> 100	> 100	–	> 100	> 100	> 100	> 100	> 100	> 100	> 100	> 100	–	> 100	> 100
COCCOCc1nc(C#N)c(N)o1	> 100	> 100	> 100	> 100	> 100	> 100	> 100	> 100	> 100	> 100	> 100	> 100	> 100	> 100	> 100	> 100	–	> 100	> 100
